This passage reports Ki results from BindingDB's records for doi:10.1007/bf00506193 (1984).

This experiment deals with T1, Alpha-1A adrenergic receptor (Rattus norvegicus, UniProt P43140).
T1 sequence (P43140 whole entry): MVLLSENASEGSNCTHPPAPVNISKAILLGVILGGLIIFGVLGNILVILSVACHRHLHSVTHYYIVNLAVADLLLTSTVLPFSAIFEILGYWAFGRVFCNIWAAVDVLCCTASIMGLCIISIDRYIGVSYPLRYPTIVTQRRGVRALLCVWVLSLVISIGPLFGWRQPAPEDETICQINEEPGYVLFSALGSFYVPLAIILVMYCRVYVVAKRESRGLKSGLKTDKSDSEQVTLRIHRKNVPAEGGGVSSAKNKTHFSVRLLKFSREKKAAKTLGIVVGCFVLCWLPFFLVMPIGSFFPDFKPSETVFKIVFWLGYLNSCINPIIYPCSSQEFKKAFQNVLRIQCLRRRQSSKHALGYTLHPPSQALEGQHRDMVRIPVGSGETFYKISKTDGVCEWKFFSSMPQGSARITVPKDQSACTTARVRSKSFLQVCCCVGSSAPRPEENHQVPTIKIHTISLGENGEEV

Usually Ki stands for the dissociation constant of the complex between target and ligand, obtained from inhibition or displacement.

Regarding `c1ccc2c(c1)OCC(C1=NCCN1)O2` (stereo unspecified), the affinity, expressed as Ki, was 91 nM.
